Experiments:
cyclooxygenase-2 = molecular target: T1, cyclooxygenase-2 (Mus musculus, UniProt Q05769); experiment: Inhibition of cyclooxygenase-2 in aspirin-pretreated, LPS-stimulated mouse peritoneal macrophages (PGE2 ELISA); format: cell-based
T1 construct: Peritoneal fluid suspended with macrophages was extracted from a mouse peritoneal cavity; endogenous in cells; host or cells: primary mouse peritoneal macrophages, pretreated with 500 uM aspirin and stimulated with 10 ug/ml LPS
T1 sequence (Q05769 18-604): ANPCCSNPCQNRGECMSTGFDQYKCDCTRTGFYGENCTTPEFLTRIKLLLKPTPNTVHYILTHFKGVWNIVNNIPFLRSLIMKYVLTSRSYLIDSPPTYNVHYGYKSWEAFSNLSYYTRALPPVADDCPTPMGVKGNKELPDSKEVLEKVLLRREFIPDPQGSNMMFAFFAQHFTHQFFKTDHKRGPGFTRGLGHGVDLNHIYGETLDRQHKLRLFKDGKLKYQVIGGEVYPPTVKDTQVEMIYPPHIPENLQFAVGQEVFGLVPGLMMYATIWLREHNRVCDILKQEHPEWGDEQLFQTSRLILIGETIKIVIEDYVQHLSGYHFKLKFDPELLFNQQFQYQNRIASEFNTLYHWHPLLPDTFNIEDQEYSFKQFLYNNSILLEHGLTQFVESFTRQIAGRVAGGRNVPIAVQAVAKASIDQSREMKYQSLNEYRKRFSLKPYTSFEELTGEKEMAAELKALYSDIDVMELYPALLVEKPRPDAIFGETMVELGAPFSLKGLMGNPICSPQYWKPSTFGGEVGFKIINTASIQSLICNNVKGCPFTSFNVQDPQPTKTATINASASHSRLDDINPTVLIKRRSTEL
Experimental: Second, the cyclooxygenase-2 was examined through the following procedure.
Peritoneal fluid suspended with macrophages was extracted from a mouse peritoneal cavity and centrifuged at 4° C., 1,000 rpm for 2 minutes. Then, the supernatant was removed, suspended using incomplete RPMI medium [PC/SM (penicilin/streptomycin)] and again centrifuged under the same condition. […] Then, the cell number was calculated with the hemocytometer and adjusted to reach 1×10^6 cells/ml of cell concentration in the final cell suspension. The resulting suspension was treated with aspirin, adjusting 500 μM of final concentration and transferred into each well of 96-well plate in 100 μl respectively. Again, it was left at 37° C. in 5% CO2 in the incubator for about 2 hours in order to attach macrophages. […] The resulting cell was cultivated in the incubator at 37° C. in 5% CO2 for about 12˜16 hours. Then, arachidonic acid was added, adjusting to 10 μM of a final concentration and incubated at 37° C. for more 10 minutes and the supernatant of the reacted solution (˜180 μl) was recovered to finish the reaction.

cyclooxygenase-1 = molecular target: T2, cyclooxygenase-1 (Mus musculus, UniProt P22437); experiment: Inhibition of cyclooxygenase-1 in mouse peritoneal macrophages (PGE2 ELISA); format: cell-based
T2 construct: endogenous in cells; host or cells: primary mouse peritoneal macrophages (unstimulated)
T2 sequence (P22437 27-602): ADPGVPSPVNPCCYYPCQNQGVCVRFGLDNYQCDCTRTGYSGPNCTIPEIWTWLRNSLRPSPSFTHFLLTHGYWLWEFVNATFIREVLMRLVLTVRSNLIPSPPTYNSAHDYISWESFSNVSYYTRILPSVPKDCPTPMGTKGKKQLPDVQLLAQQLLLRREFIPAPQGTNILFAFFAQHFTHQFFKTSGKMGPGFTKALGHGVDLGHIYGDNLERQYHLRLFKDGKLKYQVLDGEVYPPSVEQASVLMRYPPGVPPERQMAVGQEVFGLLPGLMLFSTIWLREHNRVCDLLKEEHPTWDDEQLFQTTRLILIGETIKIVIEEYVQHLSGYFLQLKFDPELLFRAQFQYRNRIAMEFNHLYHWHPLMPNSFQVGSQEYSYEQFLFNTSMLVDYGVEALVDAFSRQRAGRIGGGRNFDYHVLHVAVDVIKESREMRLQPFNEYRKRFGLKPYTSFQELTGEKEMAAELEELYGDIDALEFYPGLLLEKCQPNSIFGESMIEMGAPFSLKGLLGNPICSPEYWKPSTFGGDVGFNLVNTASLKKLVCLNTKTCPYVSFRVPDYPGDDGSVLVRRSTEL
Experimental: First of all, the cyclooxygenase-1 was examined through the following procedure.
Peritoneal fluid in which macrophages were suspended was extracted from a mouse peritoneal cavity and centrifuged at 4° C., 1,000 rpm for 2 minutes. Then, the supernatant was removed, suspended with 20 ml of incomplete (no serum) RPMI medium [PC/SM (penicilin/streptomycin)] and again centrifuged under the same condition. […] Then, the cell number was calculated with the hemocytometer and adjusted to reach 1×10^6 cells/ml of cell concentration in the final cell suspension. 100 μl of the resulting suspension was transferred into each well of 96-well plate and left at 37° C. in 5% CO2 with the incubator for about 2 hours in order to attach macrophages. […] The resulting cell was cultivated in the incubator at 37° C. in 5% CO2 for about 12˜16 hours. Then, arachidonic acid was added, adjusting to 10 μM of a final concentration and incubated at 37° C. for more 10 minutes and the supernatant of the reacted solution (˜180 μl) was recovered to finish the reaction.

[1] = in words, versus comparative substance

SMILES | Inhibitory effects of cyclooxygenase (COX), COX-2 (cyclooxygenase-2; 30 nM) | Inhibitory effects of cyclooxygenase (COX), COX-2 (cyclooxygenase-2; 100 nM) | Inhibitory effects of cyclooxygenase (COX), COX-2 (cyclooxygenase-2; 300 nM) | Inhibitory effects of cyclooxygenase (COX), COX-1 (cyclooxygenase-1; 3 μM) | Inhibitory effects of cyclooxygenase (COX), COX-1 (cyclooxygenase-1; 10 μM) | Inhibitory effects of cyclooxygenase (COX), COX-1 (cyclooxygenase-1; 30 μM) | selectivity of cyclooxygenase-2 (cyclooxygenase-2; in words, COX-2 over COX-1) | inhibition effect against cyclooxygenase-2 compared with comparative substance (cyclooxygenase-2; [1]) | inhibition effect against cyclooxygenase-1 compared with comparative substance (cyclooxygenase-1; [1])
CS(=O)(=O)c1ccc(/C=C2/C(=O)CCc3ccccc32)cc1 [Example 1, (E)-1-(4-methanesulfonyl-benzylidene)-3,4-dihydro-1H-naphthalene-2-one] | ˜0 % inhibition | ˜0 % inhibition | ˜0 % inhibition | 33.2 % inhibition | 40.7 % inhibition | 45.8 % inhibition | – | – | –
CS(=O)(=O)c1ccc(C=C2/C(=N/O)CCc3ccccc32)cc1 [Example 2, (E)-1-(4-methanesulfonyl-benzylidene)-3,4-dihydro-1H-naphthalene-2-one oxime] | 15.7 % inhibition | 20.7 % inhibition | 22 % inhibition | 56.7 % inhibition | 68.7 % inhibition | 80.4 % inhibition | – | – | –
CCO/N=C1\CCc2ccccc2C1=Cc1ccc(S(C)(=O)=O)cc1 [Example 3, (E)-1-(4-methanesulfonyl-benzylidene)-3,4-dihydro-1H-naphthalene-2-one O-ethyl Oxime] | 50.1 % inhibition | 58.8 % inhibition | 70.2 % inhibition | 60.4 % inhibition | 64.4 % inhibition | 74.6 % inhibition | – | – | –
CO/N=C1\CCc2ccccc2C1=Cc1ccc(S(C)(=O)=O)cc1 [Example 4, (E)-1-(4-methanesulfonyl-benzylidene)-3,4-dihydro-1H-naphthalene-2-one O-methyl Oxime] | 55.4 % inhibition | 69.9 % inhibition | 81.5 % inhibition | 60.3 % inhibition | 71.1 % inhibition | 80.1 % inhibition | – | – | –
CS(=O)(=O)c1ccc(C=C2/C(=N/OCc3ccccc3)CCc3ccccc32)cc1 [Example 5, (E)-1-(4-methanesulfonyl-benzylidene)-3,4-dihydro-1H-naphthalene-2-one O-benzyl Oxime] | 51.2 % inhibition | 55.4 % inhibition | 61.4 % inhibition | 39.9 % inhibition | 47.1 % inhibition | 54.3 % inhibition | – | – | –
CS(=O)(=O)c1ccc(-c2[nH]nc3c2-c2ccccc2CC3)cc1 [Example 6, 1-(4-methanesulfonyl-phenyl)-4,5-dihydro-2H-benzo[e]indazole] | 33.4 % inhibition | 46.6 % inhibition | 54.9 % inhibition | 52.3 % inhibition | 57.3 % inhibition | 64.8 % inhibition | – | – | –
CS(=O)(=O)c1ccc(-c2onc3c2-c2ccccc2CC3)cc1 [Example 7, 1-(4-methanesulfonyl-phenyl)-4,5-dihydro-naphto[2,1-c]isooxazole] | 59.8 % inhibition | 70.6 % inhibition | 76.8 % inhibition | 30 % inhibition | 44.1 % inhibition | 56.4 % inhibition | better than any other substances | more excellent than a comparative substance | much lower level than a comparative substance
CC(=O)O/N=C1\CCc2ccccc2C1=Cc1ccc(S(C)(=O)=O)cc1 [Example 8, (E)-1-(4-methanesulfonyl-benzylidene)-3,4-dihydro-1H-naphthalene-2-one O-acetyl-oxime] | 22.1 % inhibition | 28.6 % inhibition | 29.6 % inhibition | 7.6 % inhibition | 32.3 % inhibition | 53.9 % inhibition | – | – | –
CS(=O)(=O)c1ccc(C=C2/C(=N/OC(=O)COCc3ccccc3)CCc3ccccc32)cc1 [Example 9, (E)-1-(4-methanesulfonyl-benzylidene)-3,4-dihydro-1H-naphthalene-2-one O-benzyloxyacetyl-oxime] | 20.4 % inhibition | 25.5 % inhibition | 30.1 % inhibition | 22.8 % inhibition | 31.1 % inhibition | 42.1 % inhibition | – | – | –
Cn1nc2c(c1-c1ccc(S(C)(=O)=O)cc1)-c1ccccc1CC2 [Example 10, 1-(4-methanesulfonyl-phenyl)-2-methyl-4,5-dihydro-2H-benzo[e]imidazole] | 20.2 % inhibition | 31.8 % inhibition | 61.0 % inhibition | 49.8 % inhibition | 55.3 % inhibition | 61.5 % inhibition | – | – | –

Source: patent publication US6768019B2 (Cheil Jedang Corporation, priority 2001, dated 2004)
